Results on one molecule are retold here after patent US20220364132A1, “METHOD FOR FORMING A STORAGE STABLE H[…] A LIGNO[…]” (Sekab E- Technology AB, priority 2019, published 2022).

For this test, the system named is Lactobacillus. The test can be described thus: Bacterial contamination in a non-separated (non-detoxified) spruce hydrolysate, lactic acid by HPLC. The class given is cell-based. The conditions noted are these: FIG. 2. The procedure:
Non-detoxified spruce hydrolysate (with added 2 g/l yeast extract; 0.5% sodium phosphate; 0.5 g/l diammonium phosphate; 2 g/l peptone and diluted with water to 30 g/l glucose) was filter sterilized and used to represent feed media. An inoculum was prepared using MRS media and the same contaminated sample as used in previous experiments, and was incubated at 37° C. overnight (16 hours). Sodium sulfite was added at concentrations of 0 mM, 5 mM, 10 mM, 20 mM and 40 mM, respectively, to 25 ml serum bottles with 22.5 ml of the feed media. After inoculation, the bottles were placed on a multiple magnetic stirring plate at room temperature, with samples taken periodically and analyzed using HPLC.
The hydrolysate used may represent a feed stream where no separation of the pretreatment liquid and solid component has taken place. In other words, hydrolysis and fermentation inhibitors are still present in the feed stream.

For `O=S([O-])[O-].[Na+].[Na+]` [sodium sulfite], under “5 to 40 mM sodium sulfite, room temperature”, the “antimicrobial effect on the hydrolysate” value is on record as “no antimicrobial effect”. For the same molecule, where the note is “sodium sulfite added (5 to 40 mM)”, the bacterial growth result is on record as “increased bacterial growth”.
